Key:
RCC4 = experiment: XTT IC50 / viability assay, RCC4 cells; assay type: cell-based, human; conditions: Homo sapiens, RCC4, 96 h; XTT assay, four days
Outline: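 RCC4 parental and VHL-reintroduced RCC4/VHL cells (DMEM, 10% FCS) treated with serially diluted drug for four days. Viability by XTT (0.3 mg/mL) with N-methyl dibenzopyrazine methyl sulfate, 1–2 h at 37 °C, absorbance 450 nm; IC50 by linear interpolation.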

Row | SMILES | melting point [°C] | IC50 (RCC4) [µM]
1 | Cc1c(Cl)cccc1S(=O)(=O)NCc1ccc(C(=O)Nc2cccnc2)cc1 [Example 68, 4-((3-Chloro-2-methylphenylsulfonamido)methyl)-N-(pyridin-3-yl)benzamide] | 218 to 221 | > 20
2 | Cc1cc(C)cc(C(=O)NCc2ccc(C(=O)Nc3cccnc3)cc2)c1 [Example 87, 3,5-Dimethyl-N-(4-(pyridin-3-ylcarbamoyl)benzyl)benzamide] | 241 to 243 | > 20
3 | COc1ccc(C(=O)NCc2ccc(C(=O)Nc3cccnc3)cc2)cc1OC [Example 88, 3,4-Dimethoxy-N-(4-(pyridin-3-ylcarbamoyl)benzyl)benzamide] | 219 to 220 | > 20
4 | O=C(Nc1ccc[n+]([O-])c1)c1ccc(CNS(=O)(=O)c2ccccc2)cc1 [Example 93, N-(1-Oxido-3-pyridinyl)-4-((phenylsulfonamido)methyl)-benzamide] | 230 to 231 | > 20
5 | O=C(Nc1ccncc1)c1ccc(CNS(=O)(=O)c2ccc(I)cc2)cc1 [Example 99] | 270 to 273 | > 20
6 | COCCCc1ccc(S(=O)(=O)NCc2ccc(C(=O)Nc3cccnc3)cc2)cc1 [Example 101, 4-[({[4-(3-Methoxypropyl)phenyl]sulfonyl}amino)methyl]-N-(3-pyridinyl)benzamide] | 172 to 174 | 1 to 20
7 | O=C(Nc1cccnc1)c1ccc(CNS(=O)(=O)c2ccc(C#CCO)cc2)cc1 [Example 103, 4-[({[4-(3-Hydroxy-1-propynyl)phenyl]sulfonyl}amino)methyl]-N-(3-pyridinyl)benzamide] | 207 to 210 | > 20
8 | Cc1cncc(NC(=O)c2ccc(CNS(=O)(=O)c3ccc(C(C)(C)C)cc3)cc2)c1 [Example 107, 4-({[(4-tert-Butylphenyl)sulfonyl]amino}methyl)-N-(5-methyl-3-pyridinyl)benzamide] | 189 to 191 | > 20
9 | Cc1ncccc1NC(=O)c1ccc(CNS(=O)(=O)c2ccc(C(C)(C)C)cc2)cc1 [Example 108, 4-({[(4-tert-Butylphenyl)sulfonyl]amino}methyl)-N-(2-methyl-3-pyridinyl)benzamide] | 188 to 190 | > 20
10 | Cc1ccc(NC(=O)c2ccc(CNS(=O)(=O)c3ccc(C(C)(C)C)cc3)cc2)cn1 [Example 109, 4-({[(4-tert-Butylphenyl)sulfonyl]amino}methyl)-N-(6-methyl-3-pyridinyl)benzamide] | 235 to 237 | > 20
11 | COc1ccc(NC(=O)c2ccc(CNS(=O)(=O)c3ccc(C(C)(C)C)cc3)cc2)cn1 [Example 110, 4-({[(4-tert-Butylphenyl)sulfonyl]amino}methyl)-N-(6-methoxy-3-pyridinyl)benzamide] | 238 to 240 | > 20
12 | CC(C)(C)c1ccc(S(=O)(=O)NCc2ccc(C(=O)Nc3ccc(Cl)nc3)cc2)cc1 [Example 111, 4-({[(4-tert-Butylphenyl)sulfonyl]amino}methyl)-N-(6-chloro-3-pyridinyl)benzamide] | 251 to 253 | > 20
13 | Cc1ccncc1NC(=O)c1ccc(CNS(=O)(=O)c2ccc(C(C)(C)C)cc2)cc1 [Example 114, 4-({[(4-tert-Butylphenyl)sulfonyl]amino}methyl)-N-(4-methyl-3-pyridinyl)benzamide] | 183 to 185 | > 20
14 | CC(C)(C)c1ccc(S(=O)(=O)NCc2ccc(C(=O)Nc3cncc(Cl)c3)cc2)cc1 [Example 115, 4-({[(4-tert-Butylphenyl)sulfonyl]amino}methyl)-N-(5-chloro-3-pyridinyl)benzamide] | 217 to 219 | > 20
15 | CC(C)(C)c1ccc(S(=O)(=O)NCc2ccc(C(=O)Nc3cccnc3[N+](=O)[O-])cc2)cc1 [Example 116, 4-({[(4-tert-Butylphenyl)sulfonyl]amino}methyl)-N-(2-nitro-3-pyridinyl)benzamide] | 191 to 193 | > 20
16 | CC(C)(C)c1ccc(S(=O)(=O)NCc2ccc(C(=O)Nc3ccc(C(F)(F)F)nc3)cc2)cc1 [Example 118, 4-({[(4-tert-Butylphenyl)sulfonyl]amino}methyl)-N-[6-(trifluoromethyl)-3-pyridinyl]benzamide] | 249 to 252 | > 20
17 | CC(=O)Nc1ccc(NC(=O)c2ccc(CNS(=O)(=O)c3ccc(C(C)(C)C)cc3)cc2)cn1 [Example 119, N-[6-(Acetylamino)-3-pyridinyl]-4-({[(4-tert-butylphenyl)sulfonyl]amino}methyl)benzamide] | 240 to 243 | > 20
18 | CC(C)(C)c1ccc(S(=O)(=O)NCc2ccc(C(=O)Nc3ccc(F)nc3)cc2)cc1 [Example 120, 4-({[(4-tert-Butylphenyl)sulfonyl]amino}methyl)-N-(6-fluoro-3-pyridinyl)benzamide] | 254 to 257 | > 20
19 | CC(C)(C)c1ccc(S(=O)(=O)NCc2ccc(C(=O)Nc3cncc(F)c3)cc2)cc1 [Example 121, 4-({[(4-tert-Butylphenyl)sulfonyl]amino}methyl)-N-(5-fluoro-3-pyridinyl)benzamide] | 214 to 217 | > 20
20 | COc1ccncc1NC(=O)c1ccc(CNS(=O)(=O)c2ccc(C(C)(C)C)cc2)cc1 [Example 124, 4-({[(4-tert-Butylphenyl)sulfonyl]amino}methyl)-N-(4-methoxy-3-pyridinyl)benzamide] | 231 to 233 | > 20
21 | CC(C)(C)c1ccc(S(=O)(=O)NCc2ccc(C(=O)Nc3ccc(Br)nc3)cc2)cc1 [Example 125, N-(6-Bromo-3-pyridinyl)-4-({[(4-tert-butylphenyl)sulfonyl]amino}methyl)benzamide] | 242 to 244 | > 20
22 | O=C(Nc1cccnc1)c1ccc(CNS(=O)(=O)c2ccc(-c3cccc(C(F)(F)F)c3)cc2)cc1 [Example 134, N-(3-Pyridinyl)-4-[({[3′-(trifluoromethyl)[1,1′-biphenyl]-4-yl]sulfonyl}amino)methyl]benzamide] | 227 to 229 | > 20
23 | CCCN(Cc1ccc(C(=O)Nc2cccnc2)cc1)S(=O)(=O)c1ccc(C(C)(C)C)cc1 [Example 140, 4-{[[(4-tert-Butylphenyl)sulfonyl](propyl)amino]methyl}-N-(3-pyridinyl)benzamide] | 177 to 179 | > 20

Source: US20120225862A1, “HETEROARYL BENZAMIDES, COMPOSITIONS AND METHODS OF USE” (AUCKLAND UNIVSERVICES LIMITED, priority 2009, published 2012)
